From patent publication US20240246964A1 (Arbutus Biopharma Corporation, priority 2021, published 2024)

What was measured:
[1] = biological target: PD-L1 His protein / PD-1 Fc protein (Homo sapiens (Human), UniProt Q9NZQ7); experiment: HTRF Assay (PD-1/PD-L1 interaction); assay type: binding; conditions: PD-L1 His 6 nM, PD-1 Fc 6 nM
human PD-L1 = human PD-L1 (Homo sapiens (Human), UniProt Q9NZQ7); experiment: T cell activation luciferase reporter cell culture system (T Cell Activation Assay); assay type: cell-based; conditions: luciferase reporter assay; PD-L1 aAPC/CHO-K1 cells with PD-1 effector Jurkat T cells
Chain of human PD-L1 (Q9NZQ7 19-290): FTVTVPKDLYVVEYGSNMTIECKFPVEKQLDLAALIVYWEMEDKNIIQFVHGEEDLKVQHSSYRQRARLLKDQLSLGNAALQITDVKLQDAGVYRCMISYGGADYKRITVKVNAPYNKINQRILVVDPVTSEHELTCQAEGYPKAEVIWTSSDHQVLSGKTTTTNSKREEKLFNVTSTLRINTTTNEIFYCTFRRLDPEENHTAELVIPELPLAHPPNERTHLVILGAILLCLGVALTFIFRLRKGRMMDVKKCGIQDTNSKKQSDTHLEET

Chain of PD-L1 His protein / PD-1 Fc protein (Q9NZQ7 19-238): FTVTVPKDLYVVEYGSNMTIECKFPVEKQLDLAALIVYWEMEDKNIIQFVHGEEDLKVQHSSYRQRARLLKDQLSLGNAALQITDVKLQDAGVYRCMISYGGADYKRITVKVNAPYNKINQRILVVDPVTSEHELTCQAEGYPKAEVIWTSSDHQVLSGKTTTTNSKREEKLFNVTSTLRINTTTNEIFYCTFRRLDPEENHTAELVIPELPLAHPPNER

SMILES | IC50 [1] [nM] | EC50 (human PD-L1) [nM]
COc1nc(-c2cccc(-c3ccnc(-c4ccc5c(CNC[C@@H]6CCCO6)cn(C)c5c4)c3Cl)c2Cl)ccc1CNC[C@@H]1CCC(=O)N1 [Compound 41, (S)-5-((((6-(2-chloro-3-(3-chloro-2-(1-methyl-3-(((((S)-tetrahydrofuran-2-yl)methyl)amino)methyl)-1H-indol-6-yl)pyridin-4-yl)phenyl)-2-methoxypyridin-3-yl)methyl)amino)methyl)pyrrolidin-2-one] | 33.9 | 164
COc1nc(-c2cccc(-c3ccnc(-c4ccc5c(CNC6CCOCC6)cn(C)c5c4)c3Cl)c2Cl)ccc1CNC[C@@H]1CCC(=O)N1 [Compound 42, (S)-5-((((6-(2-chloro-3-(3-chloro-2-(1-methyl-3-(((tetrahydro-2H-pyran-4-yl)amino)methyl)-1H-indol-6-yl)pyridin-4-yl)phenyl)-2-methoxypyridin-3-yl)methyl)amino)methyl)pyrrolidin-2-one] | 0.1 | 88.6
COc1nc(-c2cccc(-c3ccnc(-c4ccc5c(CNC6CCS(=O)(=O)CC6)cn(C)c5c4)c3Cl)c2Cl)ccc1CNC[C@@H]1CCC(=O)N1 [Compound 43, (S)-5-((((6-(2-chloro-3-(3-chloro-2-(3-(((1,1-dioxidotetrahydro-2H-thiopyran-4-yl)amino)methyl)-1-methyl-1H-indol-6-yl)pyridin-4-yl)phenyl)-2-methoxypyridin-3-yl)methyl)amino)methyl)pyrrolidin-2-one] | 0.2 | 62.5
COc1nc(-c2cccc(-c3ccnc(-c4cc5c(=O)n(C)c(CN6CC7(CC(O)C7)C6)nn5c4)c3Cl)c2Cl)ccc1CNC[C@@H]1CCC(=O)N1 [Compound 48, (S)-6-(3-chloro-4-(2-chloro-3-(6-methoxy-5-((((5-oxopyrrolidin-2-yl)methyl)amino)methyl)pyridin-2-yl)phenyl)pyridin-2-yl)-2-((6-hydroxy-2-azaspiro[3.3]heptan-2-yl)methyl)-3-methylpyrrolo[2,1-f][1,2,4]triazin-4(3H)-one] | 0.04 | 18.7
COc1nc(-c2cccc(-c3ccnc(-c4cnc5cc(CNC[C@@H]6CCC(=O)N6)ccc5c4)c3Cl)c2Cl)ccc1CNC[C@@H]1CCC(=O)N1 [Compound 52, (S)-5-((((6-(2-chloro-3-(3-chloro-2-(7-(((((S)-5-oxopyrrolidin-2-yl)methyl)amino)methyl)quinolin-3-yl)pyridin-4-yl)phenyl)-2-methoxypyridin-3-yl)methyl)amino)methyl)pyrrolidin-2-one] | 0.2 | 127
COc1nc(-c2cccc(-c3ccnc(-c4ccc5c(CNC6CN(C(C)=O)C6)cn(C)c5c4)c3Cl)c2Cl)ccc1CNC[C@@H]1CCC(=O)N1 [Compound 55, (S)-5-((((6-(3-(2-(3-(((1-acetylazetidin-3-yl)amino)methyl)-1-methyl-1H-indol-6-yl)-3-chloropyridin-4-yl)-2-chlorophenyl)-2-methoxypyridin-3-yl)methyl)amino)methyl)pyrrolidin-2-one] | 4.9 | 127
COc1nc(-c2cccc(-c3ccnc(-c4ccc5c(CN(C)C6CCN(C(C)=O)CC6)cn(C)c5c4)c3Cl)c2Cl)ccc1CNC[C@@H]1CCC(=O)N1 [Compound 56, (S)-5-((((6-(3-(2-(3-(((1-acetylpiperidin-4-yl)(methyl)amino)methyl)-1-methyl-1H-indol-6-yl)-3-chloropyridin-4-yl)-2-chlorophenyl)-2-methoxypyridin-3-yl)methyl)amino)methyl)pyrrolidin-2-one] | 4 | 36.8
COc1nc(-c2cccc(-c3ccnc(-c4ccc5c(c4)CN(CCNC[C@@H]4CCC(=O)N4)C5=O)c3Cl)c2Cl)ccc1CNC[C@@H]1CCC(=O)N1 [Compound 66, 5-(3-chloro-4-(2-chloro-3-(6-methoxy-5-(((((S)-5-oxopyrrolidin-2-yl)methyl)amino)methyl)pyridin-2-yl)phenyl)pyridin-2-yl)-2-(2-((((S)-5-oxopyrrolidin-2-yl)methyl)amino)ethyl)isoindolin-1-one] | 0.6 | 158
